Key:
[1] = target: human IRAK4 FL (Full Length), phosphorylated (Homo sapiens (Human), UniProt Q9NWZ3); test: IRAK4 Enzymatic DELFIA Assay, Protocol A; type: biochemical; conditions: 600 μM ATP (KM); full-length phosphorylated recombinant human IRAK4
Description: IRAK4 Enzymatic DELFIA Assay, Protocol A.
This is an in vitro assay to measure IRAK4 enzymatic activity utilizing the DELFIA (Dissociation-Enhanced Lanthanide Fluorescent Immunoassay, Perkin-Elmer) platform, with the human IRAK4 FL (Full Length) construct to characterize IRAK4 inhibitor and control compounds at 600 μM ATP (KM). The final amount of enzyme in the assay is 0.1 nM IRAK4 FL, final concentration of substrate is 50 nM, and final concentration of DMSO is 2.5%.
The test compound was solubilized in DMSO to a stock concentration of 30 mM. The dose response plates were prepared with a 4 mM primary compound concentration (40-fold multiple of the final in-assay concentration), and diluted in DMSO in a four-fold series for a total of 11 data points. 1 μL of the compound dilution plate is spotted into ultra-clear polypropylene, 384-well, U-bottom plates (Corning Life Sciences).
To begin the assay, 19 μL of reaction mixture containing 20 mM HEPES pH=7.5, 5 mM MgCl2, 0.0025% Brij-35, 600 μM ATP, 0.21 nM Full-length phosphorylated recombinant human IRAK4 (GenBank ID AF445802) are aliquoted into the polypropylene, 384-well, U-bottom plates containing 1 μL of test compound, mixed briefly and incubated for 20 minutes at room temperature (RT). Then, 20 μL of 20 mM HEPES pH=7.5, 5 mM MgCl2, 0.0025% Brij-35, 600 μM ATP, and 100 nM ERM-biotinylated peptide (AGAGRDKYKTLRQIR) is added to start the reaction. The reaction is incubated for 60 minutes at RT and stopped by the addition of 20 μL 0.3M EDTA.
(§1) 50 μL of the reaction mixture was transferred to a streptavidin-coated detection plate (DELFIA streptavidin coated plates, 384-well, white plates, Perkin-Elmer Life Sciences) and incubated for 30 minutes at RT. The plates were washed 4× with 75 μL per well of PBS containing 0.05% Tween-20. Plates were then incubated with 50 μL per well of antibody cocktail of Anti-pERM antibody at 0.125 μg/mL (Cell Signaling Technology), plus Anti-Rabbit IgG EuN1 at 0.25 μg/ml (Perkin-Elmer Life Sciences) in a solution of 10 mM MOPS pH=7.5, 150 mM NaCl, 0.05% Tween-20, 0.02% NaN3, 1% BSA, 0.1% Gelatin for 45 minutes. The plates were then washed as before. 50 μL per well of DELFIA Enhancement Solution (Perkin-Elmer Life Sciences) was added to the plate and incubated for 15 minutes at RT prior to being read on an Envision Model 2104 multi-label reader using a 340 nm excitation wavelength and a […] emission wavelength for detection.

[2] = target: inactive, unphosphorylated (0-phos), human IRAK4 FL (Full Length) (Homo sapiens (Human), UniProt Q9NWZ3); test: IRAK4 Enzymatic DELFIA Assay, Protocol B; type: biochemical; conditions: 600 μM ATP (KM), full-length recombinant human IRAK4
Description: IRAK4 Enzymatic DELFIA Assay, Protocol B.
The test compound is solubilized in DMSO to a stock concentration of 30 mM. The dose response plates were prepared with a 4 mM primary compound concentration, serialized in DMSO and spotted (1 μL) into 384-well polypropylene plates as before.
20 uL of 20 mM HEPES pH=7.5, 5 mM MgCl2, 0.0025% Brij-35, 600 μM ATP, and 100 nM ERM-biotinylated peptide (AGAGRDKYKTLRQIR) was added to start the reaction, which was run for 90 minutes at RT and stopped by the addition of 20 μL 0.3M EDTA.
as §1

Chain of human IRAK4 FL (Full Length), phosphorylated (Q9NWZ3 whole entry): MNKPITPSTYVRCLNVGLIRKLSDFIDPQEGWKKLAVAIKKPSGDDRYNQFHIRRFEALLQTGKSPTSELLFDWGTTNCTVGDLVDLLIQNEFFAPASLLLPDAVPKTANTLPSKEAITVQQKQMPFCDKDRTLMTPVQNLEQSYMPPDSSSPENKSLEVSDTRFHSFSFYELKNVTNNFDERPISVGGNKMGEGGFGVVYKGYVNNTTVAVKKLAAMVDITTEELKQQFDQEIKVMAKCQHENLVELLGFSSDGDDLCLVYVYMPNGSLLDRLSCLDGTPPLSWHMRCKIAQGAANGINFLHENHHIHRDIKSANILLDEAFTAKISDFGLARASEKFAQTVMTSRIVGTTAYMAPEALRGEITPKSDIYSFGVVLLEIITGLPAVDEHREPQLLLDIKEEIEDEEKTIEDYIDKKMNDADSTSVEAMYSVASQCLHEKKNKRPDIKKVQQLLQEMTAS
Chain of inactive, unphosphorylated (0-phos), human IRAK4 FL (Full Length) (Q9NWZ3 whole entry): as above

Row | Compound | IC50 [1] | IC50 [2]
1 | COc1cc2c(OCC34CC3CC(=O)N4)nccc2cc1C(N)=O (racemic) [Example 29, 7-methoxy-1-[(3-oxo-2-azabicyclo[3.1.0]hex-1-yl)methoxy]isoquinoline-6-carboxamide] | 4200 nM | 350 nM
2 | CC[C@@H]1[C@H](F)C(=O)N[C@@H]1COc1cccc2cc(C(N)=O)c(OC)nc12 [Example 1, 8-{[(2S,3S,4S)-3-Ethyl-4-fluoro-5-oxopyrrolidin-2-yl]methoxy}-2-methoxyquinoline-3-carboxamide] | 7.5 nM | 2 nM
3 | CC(C)Oc1cc2c(OC[C@@H]3CCC(=O)N3)ncc(-c3ncco3)c2cc1C(N)=O [Example 2, 4-(1,3-Oxazol-2-yl)-1-{[(2S)-5-oxopyrrolidin-2-yl]methoxy}-7-(propan-2-yloxy)isoquinoline-6-carboxamide] | 188 nM | 4 nM
4 | Cc1c[nH]c(-c2cnc(OC[C@@H]3CCC(=O)N3)c3cc(OC(C)C)c(C(N)=O)cc23)n1 [Example 3, 4-(4-Methyl-1H-imidazol-2-yl)-1-{[(2S)-5-oxopyrrolidin-2-yl]methoxy}-7-(propan-2-yloxy)isoquinoline-6-carboxamide] | 2900 nM | 230 nM
5 | CC(C)Oc1cc2c(OC[C@@H]3CCC(=O)N3)ncc(-c3ccn(C)n3)c2cc1C(N)=O [Example 4, 4-(1-Methyl-1H-pyrazol-3-yl)-1-{[(2S)-5-oxopyrrolidin-2-yl]methoxy}-7-(propan-2-yloxy)isoquinoline-6-carboxamide] | 112 nM | 10 nM
6 | CC(C)Oc1cc2c(OC[C@@H]3CCC(=O)N3)ncc(-c3cnn(C)c3)c2cc1C(N)=O [Example 5, 4-(1-methyl-1H-pyrazol-4-yl)-1-{[(2S)-5-oxopyrrolidin-2-yl]methoxy}-7-(propan-2-yloxy)isoquinoline-6-carboxamide] | 3.7 nM | 1.1 nM
7 | Cc1coc(-c2cnc(OC[C@@H]3CCC(=O)N3)c3cc(OC(C)C)c(C(N)=O)cc23)n1 [Example 6, 4-(4-Methyl-1,3-oxazol-2-yl)-1-{[(2S)-5-oxopyrrolidin-2-yl]methoxy}-7-(propan-2-yloxy)isoquinoline-6-carboxamide] | 227 nM | 3 nM
8 | Cc1nc(-c2cnc(OC[C@@H]3CCC(=O)N3)c3cc(OC(C)C)c(C(N)=O)cc23)oc1C [Example 7, 4-(4,5-Dimethyl-1,3-oxazol-2-yl)-1-{[(2S)-5-oxopyrrolidin-2-yl]methoxy}-7-(propan-2-yloxy)isoquinoline-6-carboxamide] | 57 nM | 3.2 nM
9 | CC(C)Oc1cc2c(OC[C@@H]3CCC(=O)N3)ncc(-c3nc(CO)c[nH]3)c2cc1C(N)=O [Example 8, 4-[4-(Hydroxymethyl)-1H-imidazol-2-yl]-1-{[(2S)-5-oxopyrrolidin-2-yl]methoxy}-7-(propan-2-yloxy)isoquinoline-6-carboxamide] | 2100 nM | 190 nM
10 | Cc1cnc(-c2cnc(OC[C@@H]3CCC(=O)N3)c3cc(OC(C)C)c(C(N)=O)cc23)o1 [Example 9, 4-(5-Methyl-1,3-oxazol-2-yl)-1-{[(2S)-5-oxopyrrolidin-2-yl]methoxy}-7-(propan-2-yloxy)isoquinoline-6-carboxamide] | 89 nM | 4.3 nM
11 | CC[C@@H]1CC(=O)N[C@@H]1COc1ncc(NS(=O)(=O)c2ccccc2)c2cc(C(N)=O)c(OC(C)C)cc12 [Example 10, 1-{[(2S,3R)-3-ethyl-5-oxopyrrolidin-2-yl]methoxy}-4-[(phenylsulfonyl)amino]-7-(propan-2-yloxy)isoquinoline-6-carboxamide] | > 100000 nM | 5700 nM
12 | CC[C@@H]1CC(=O)N[C@@H]1COc1ncc(NS(=O)(=O)c2cccnc2)c2cc(C(N)=O)c(OC(C)C)cc12 [Example 11, 1-{[(2S,3R)-3-Ethyl-5-oxopyrrolidin-2-yl]methoxy}-7-(propan-2-yloxy)-4-[(pyridin-3-ylsulfonyl)amino]isoquinoline-6-carboxamide] | > 100000 nM | 1300 nM
13 | CC[C@@H]1CC(=O)N[C@@H]1COc1ncc(NS(=O)(=O)c2c[nH]cn2)c2cc(C(N)=O)c(OC(C)C)cc12 [Example 12, 1-{[(2S,3R)-3-Ethyl-5-oxopyrrolidin-2-yl]methoxy}-4-[(1H-imidazol-4-ylsulfonyl)amino]-7-(propan-2-yloxy)isoquinoline-6-carboxamide] | > 100000 nM | 6500 nM
14 | CC[C@@H]1CC(=O)N[C@@H]1COc1ncc(NS(=O)(=O)c2cn(C)cn2)c2cc(C(N)=O)c(OC(C)C)cc12 [Example 13, 1-{[(2S,3R)-3-Ethyl-5-oxopyrrolidin-2-yl]methoxy}-4-{[(1-methyl-1H-imidazol-4-yl)sulfonyl]amino}-7-(propan-2-yloxy)isoquinoline-6-carboxamide] | > 100000 nM | 12000 nM
15 | CC[C@@H]1CC(=O)N[C@@H]1COc1ncc(NS(=O)(=O)c2cn(C)c(C)n2)c2cc(C(N)=O)c(OC(C)C)cc12 [Example 14, 4-{[(1,2-Dimethyl-1H-imidazol-4-yl)sulfonyl]amino}-1-{[(2S,3R)-3-ethyl-5-oxopyrrolidin-2-yl]methoxy}-7-(propan-2-yloxy)isoquinoline-6-carboxamide] | 29000 nM | 15000 nM
16 | CC[C@@H]1[C@H](F)C(=O)N[C@@H]1COc1ncc(N)c2cc(C(N)=O)c(OC)cc12 [Example 15, 4-Amino-1-{[(2S,3S,4S)-3-ethyl-4-fluoro-5-oxopyrrolidin-2-yl]methoxy}-7-methoxyisoquinoline-6-carboxamide] | 2.2 nM | 0.5 nM
17 | CC(C)Oc1cc2c(OC[C@@H]3NC(=O)[C@@H](F)C34CC4)nccc2cc1C(N)=O [Example 16, 1-(((4R,7S)-7-fluoro-6-oxo-5-azaspiro[2.4]heptan-4-yl)methoxy)-7-isopropoxyisoquinoline-6-carboxamide] | 4500 nM | 390 nM
18 | CC(C)Oc1cc2c(OC[C@H]3NC(=O)[C@H](F)C34CC4)nccc2cc1C(N)=O [Example 17, 1-(((4S,7R)-7-fluoro-6-oxo-5-azaspiro[2.4]heptan-4-yl)methoxy)-7-isopropoxyisoquinoline-6-carboxamide] | 20.7 nM | 1.2 nM
19 | CC(C)Oc1cc2c(OC[C@@H]3NC(=O)[C@H](F)C34CC4)nccc2cc1C(N)=O [Example 18, 1-(((4R,7R)-7-fluoro-6-oxo-5-azaspiro[2.4]heptan-4-yl)methoxy)-7-isopropoxyisoquinoline-6-carboxamide] | 16000 nM | 870 nM
20 | CC(C)Oc1cc2c(OC[C@H]3NC(=O)[C@@H](F)C34CC4)nccc2cc1C(N)=O [Example 19, 1-(((4S,7S)-7-fluoro-6-oxo-5-azaspiro[2.4]heptan-4-yl)methoxy)-7-isopropoxyisoquinoline-6-carboxamide] | 5.4 nM | 0.6 nM
21 | COc1cc2c(OC[C@H]3NC(=O)[C@H](F)C34CC4)nccc2cc1C(N)=O [Example 21, 1-(((4S,7R)-7-fluoro-6-oxo-5-azaspiro[2.4]heptan-4-yl)methoxy)-7-methoxyisoquinoline-6-carboxamide] | 38.5 nM | 21 nM
22 | NC(=O)c1cc2ccnc3c2cc1OCCOC[C@H]1C[C@@H](CO3)NC1=O [Example 28, (3S,6R)-5-oxo-2,3,4,5,6,7,9,10-octahydro-12,14-(ethanediylidene)-3,6-methanopyrido[2,3-l][1,4,11,8]trioxazacyclopentadecine-19-carboxamide] | 1900 nM | –
23 | CNC(=O)c1cc2ccnc(OC[C@H]3NC(=O)[C@@H](F)[C@H]3C)c2cc1OC [Example 33, 1-(((2S,3S,4S)-4-fluoro-3-methyl-5-oxopyrrolidin-2-yl)methoxy)-7-methoxy-N-methylisoquinoline-6-carboxamide] | – | 2000 nM

Reference: patent publication US10174000B2, “Bicyclic-fused heteroaryl or aryl compounds as IRAK4 modulators” (PFIZER INC., priority 2015, dated 2019)
